Consider one compound from US10953011B2, “Methods of treating virally associated cancers with histone deacetylase inhibitors” (priority 2019, dated 2021).

Structures are written as SMILES.

Assay in all cases: in vitro HDAC inhibition assay (fluorescence)
Assay type in all cases: biochemical

One test addresses T1, HDAC11 (Homo sapiens, UniProt Q96DB2).
T1 sequence (Q96DB2 1-347): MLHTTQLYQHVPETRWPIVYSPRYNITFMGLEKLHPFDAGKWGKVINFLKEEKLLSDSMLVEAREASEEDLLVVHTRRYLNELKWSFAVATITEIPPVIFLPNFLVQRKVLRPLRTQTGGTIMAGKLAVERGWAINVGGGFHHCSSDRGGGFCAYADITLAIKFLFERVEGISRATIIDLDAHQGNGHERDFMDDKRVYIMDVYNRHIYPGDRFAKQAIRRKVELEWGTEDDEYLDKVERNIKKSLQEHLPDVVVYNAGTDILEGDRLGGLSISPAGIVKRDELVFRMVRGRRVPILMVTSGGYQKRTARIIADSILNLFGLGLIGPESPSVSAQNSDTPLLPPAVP
The conditions noted are these: 1 h pre-incubation; 2 μM HDAC Substrate Class 2a; read-out: IC50 (μM) HDAC11. The procedure: (§1) Briefly, all of the compounds are dissolved in DMSO. A series of dilutions of the compounds were prepared with 10% DMSO in HDAC assay buffer and 5 μl of the dilution was added to a 50 μl reaction so that the final concentration of DMSO is 1% in all of reactions. The compounds were pre-incubated in duplicate at RT for 1 hour in a mixture containing HDAC assay buffer, 5 μg BSA, HDAC enzyme (see Table 7) and a the particular HDACi. After 1 hour, the enzymatic reactions were initiated by the addition of HDAC substrate (BPS Bioscience) to a final concentration of 10 μM or 2 μM. The enzymatic reaction proceeded for 30 minutes at 37° C.
(§2) HDAC activity assays were performed in duplicates at each concentration. The fluorescent intensity data were analyzed using the computer software, Graphpad Prism. In the absence of the compound, the fluorescent intensity (Ft) in each data set was defined as 100% activity. In the absence of HDAC, the fluorescent intensity (Fb) in each data set was defined as 0% activity. The percent activity in the presence of each compound was calculated according to the following equation: % activity=(F−Fb)/(Ft−Fb), where F=the fluorescent intensity in the presence of the compound.
(§3) The values of % activity versus a series of compound concentrations were then plotted using non-linear regression analysis of Sigmoidal dose-response curve generated with the equation Y=B+(T−B)/1+10^((Log EC50-X)×Hill Slope), where Y=percent activity, B=minimum percent activity, T=maximum percent activity, X=logarithm of compound and Hill Slope=slope factor or Hill coefficient. The IC50 value was determined by the concentration causing a half-maximal percent activity.

For a further test, the target named is HDAC4 (Homo sapiens, UniProt P56524). To be noted: 1 h pre-incubation; 2 μM HDAC Substrate Class 2a; read-out: IC50 (μM) HDAC4. The procedure:
as §1, §2, §3

The next test deals with HDAC5 (Homo sapiens, UniProt Q9UQL6). To be noted: 1 h pre-incubation; 2 μM HDAC Substrate Class 2a; read-out: IC50 (μM) HDAC5. The procedure:
as §1, §2, §3

A further test deals with T2, HDAC7 (Homo sapiens, UniProt Q8WUI4).
T2 sequence (Q8WUI4 1-952): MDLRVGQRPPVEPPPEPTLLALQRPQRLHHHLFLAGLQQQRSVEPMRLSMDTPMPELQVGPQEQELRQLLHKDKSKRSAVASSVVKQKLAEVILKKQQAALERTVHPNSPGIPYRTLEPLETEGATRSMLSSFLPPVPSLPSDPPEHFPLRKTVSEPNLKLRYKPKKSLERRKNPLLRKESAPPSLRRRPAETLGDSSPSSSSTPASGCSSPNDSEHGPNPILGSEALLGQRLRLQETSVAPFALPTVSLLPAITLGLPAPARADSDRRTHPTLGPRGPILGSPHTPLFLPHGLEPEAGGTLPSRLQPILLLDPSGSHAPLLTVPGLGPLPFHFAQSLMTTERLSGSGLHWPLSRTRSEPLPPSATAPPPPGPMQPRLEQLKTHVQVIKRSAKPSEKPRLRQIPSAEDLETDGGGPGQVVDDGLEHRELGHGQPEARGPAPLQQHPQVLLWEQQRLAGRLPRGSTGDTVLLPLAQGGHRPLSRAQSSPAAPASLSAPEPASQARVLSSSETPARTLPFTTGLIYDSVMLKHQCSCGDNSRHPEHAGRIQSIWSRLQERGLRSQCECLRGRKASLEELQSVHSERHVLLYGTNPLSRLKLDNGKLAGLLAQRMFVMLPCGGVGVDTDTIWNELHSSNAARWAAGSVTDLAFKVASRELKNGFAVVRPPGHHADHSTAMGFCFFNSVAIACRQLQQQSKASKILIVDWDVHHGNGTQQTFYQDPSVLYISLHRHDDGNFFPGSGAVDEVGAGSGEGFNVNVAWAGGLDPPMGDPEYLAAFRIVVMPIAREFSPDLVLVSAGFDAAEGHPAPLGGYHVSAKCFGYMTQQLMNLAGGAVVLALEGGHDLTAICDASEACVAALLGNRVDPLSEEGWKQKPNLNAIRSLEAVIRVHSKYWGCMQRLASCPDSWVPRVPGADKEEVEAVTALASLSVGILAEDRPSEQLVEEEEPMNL
The conditions noted are these: 1 h pre-incubation; 2 μM HDAC Substrate Class 2a; read-out: IC50 (μM) HDAC7. The procedure:
as §1, §2, §3

The next test concerns the target HDAC9 (Homo sapiens, UniProt Q9UKV0). The conditions noted are these: 1 h pre-incubation; 2 μM HDAC Substrate Class 2a; read-out: IC50 (μM) HDAC9. The procedure: as §1, §2, §3

HDAC9, sequence (Q9UKV0 whole entry): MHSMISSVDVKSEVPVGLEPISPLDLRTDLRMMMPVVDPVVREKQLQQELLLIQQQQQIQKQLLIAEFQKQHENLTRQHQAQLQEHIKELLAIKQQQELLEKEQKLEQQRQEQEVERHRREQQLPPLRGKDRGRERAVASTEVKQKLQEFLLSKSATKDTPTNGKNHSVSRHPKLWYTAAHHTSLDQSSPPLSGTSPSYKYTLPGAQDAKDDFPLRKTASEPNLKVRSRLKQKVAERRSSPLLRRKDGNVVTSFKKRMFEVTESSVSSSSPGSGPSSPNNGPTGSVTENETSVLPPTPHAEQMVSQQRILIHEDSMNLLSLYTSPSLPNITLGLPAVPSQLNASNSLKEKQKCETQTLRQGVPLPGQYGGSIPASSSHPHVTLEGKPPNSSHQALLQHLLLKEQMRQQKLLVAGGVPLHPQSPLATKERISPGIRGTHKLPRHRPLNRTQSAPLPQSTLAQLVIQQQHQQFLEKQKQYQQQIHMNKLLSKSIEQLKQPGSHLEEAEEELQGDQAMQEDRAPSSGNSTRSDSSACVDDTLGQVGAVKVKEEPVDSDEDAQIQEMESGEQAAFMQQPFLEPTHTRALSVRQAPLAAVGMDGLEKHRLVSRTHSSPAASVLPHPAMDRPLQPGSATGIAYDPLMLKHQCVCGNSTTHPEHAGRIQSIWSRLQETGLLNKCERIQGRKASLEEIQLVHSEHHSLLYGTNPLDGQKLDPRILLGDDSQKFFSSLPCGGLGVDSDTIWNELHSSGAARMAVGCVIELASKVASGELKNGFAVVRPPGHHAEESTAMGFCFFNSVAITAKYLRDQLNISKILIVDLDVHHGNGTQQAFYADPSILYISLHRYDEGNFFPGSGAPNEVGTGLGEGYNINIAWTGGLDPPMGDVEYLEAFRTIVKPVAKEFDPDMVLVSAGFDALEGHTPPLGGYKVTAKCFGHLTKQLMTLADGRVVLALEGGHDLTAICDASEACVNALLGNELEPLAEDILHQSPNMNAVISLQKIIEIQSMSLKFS
HDAC4, sequence (P56524 whole entry): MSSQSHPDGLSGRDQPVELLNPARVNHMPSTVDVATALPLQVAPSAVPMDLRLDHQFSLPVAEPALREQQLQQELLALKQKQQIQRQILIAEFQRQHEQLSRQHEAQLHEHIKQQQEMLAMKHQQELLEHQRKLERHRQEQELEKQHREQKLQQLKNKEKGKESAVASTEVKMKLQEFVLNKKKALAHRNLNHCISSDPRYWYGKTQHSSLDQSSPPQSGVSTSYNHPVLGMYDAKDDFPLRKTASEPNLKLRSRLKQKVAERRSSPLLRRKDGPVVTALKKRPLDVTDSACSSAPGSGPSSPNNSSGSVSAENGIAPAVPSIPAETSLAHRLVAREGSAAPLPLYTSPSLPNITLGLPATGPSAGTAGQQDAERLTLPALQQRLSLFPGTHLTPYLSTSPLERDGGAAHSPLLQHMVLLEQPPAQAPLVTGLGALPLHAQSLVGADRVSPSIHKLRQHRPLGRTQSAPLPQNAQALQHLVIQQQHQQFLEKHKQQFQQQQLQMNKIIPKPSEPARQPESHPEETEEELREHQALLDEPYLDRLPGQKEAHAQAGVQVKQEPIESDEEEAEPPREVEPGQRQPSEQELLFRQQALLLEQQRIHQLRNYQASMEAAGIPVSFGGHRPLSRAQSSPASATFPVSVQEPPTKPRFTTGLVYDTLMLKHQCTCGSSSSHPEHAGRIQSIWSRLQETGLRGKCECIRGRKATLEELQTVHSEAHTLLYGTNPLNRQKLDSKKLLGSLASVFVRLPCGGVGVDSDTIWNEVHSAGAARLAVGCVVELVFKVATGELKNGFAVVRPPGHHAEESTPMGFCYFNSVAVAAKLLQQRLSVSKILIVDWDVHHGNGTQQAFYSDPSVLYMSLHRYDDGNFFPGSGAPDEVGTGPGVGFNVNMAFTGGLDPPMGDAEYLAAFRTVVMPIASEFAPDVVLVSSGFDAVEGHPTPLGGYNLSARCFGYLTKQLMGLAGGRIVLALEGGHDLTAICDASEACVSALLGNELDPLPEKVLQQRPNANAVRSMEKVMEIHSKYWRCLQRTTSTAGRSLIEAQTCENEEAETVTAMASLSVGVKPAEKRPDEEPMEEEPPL
HDAC5, sequence (Q9UQL6 whole entry): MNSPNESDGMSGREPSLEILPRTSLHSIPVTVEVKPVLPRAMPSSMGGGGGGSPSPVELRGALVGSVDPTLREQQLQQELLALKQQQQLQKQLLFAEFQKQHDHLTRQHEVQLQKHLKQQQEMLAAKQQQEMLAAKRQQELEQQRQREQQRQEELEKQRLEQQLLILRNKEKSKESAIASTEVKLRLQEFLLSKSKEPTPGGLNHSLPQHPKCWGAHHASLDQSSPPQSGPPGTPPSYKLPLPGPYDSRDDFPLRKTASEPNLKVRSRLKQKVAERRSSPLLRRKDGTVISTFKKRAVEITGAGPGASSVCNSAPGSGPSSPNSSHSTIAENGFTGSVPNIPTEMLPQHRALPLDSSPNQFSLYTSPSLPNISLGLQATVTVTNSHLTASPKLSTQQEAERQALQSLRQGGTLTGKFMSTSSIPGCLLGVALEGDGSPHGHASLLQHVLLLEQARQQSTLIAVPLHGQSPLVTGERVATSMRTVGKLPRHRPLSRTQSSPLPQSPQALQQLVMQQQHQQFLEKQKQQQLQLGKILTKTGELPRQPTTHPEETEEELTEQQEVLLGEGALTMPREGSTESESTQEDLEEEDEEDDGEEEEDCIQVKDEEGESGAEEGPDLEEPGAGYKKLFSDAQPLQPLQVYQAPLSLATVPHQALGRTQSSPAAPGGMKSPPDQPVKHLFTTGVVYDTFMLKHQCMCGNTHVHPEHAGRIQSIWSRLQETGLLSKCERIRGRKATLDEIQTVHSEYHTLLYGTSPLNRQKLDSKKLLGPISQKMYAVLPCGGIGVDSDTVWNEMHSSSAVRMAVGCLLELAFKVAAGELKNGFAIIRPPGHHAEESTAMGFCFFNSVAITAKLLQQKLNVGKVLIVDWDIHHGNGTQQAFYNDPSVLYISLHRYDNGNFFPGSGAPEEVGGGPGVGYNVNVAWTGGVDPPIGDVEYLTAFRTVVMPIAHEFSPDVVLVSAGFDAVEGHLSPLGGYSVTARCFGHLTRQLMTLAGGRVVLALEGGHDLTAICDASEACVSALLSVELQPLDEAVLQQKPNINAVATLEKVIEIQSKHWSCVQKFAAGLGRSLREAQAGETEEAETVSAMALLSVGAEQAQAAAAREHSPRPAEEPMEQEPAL

Broadly, the IC50 is the concentration that gives 50% inhibition. On to `O=C(NO)c1cnc(N2C[C@@H]3[C@H](C2)[C@H]3NCc2ccc3cc(F)ccc3n2)nc1` [Nanatinostat, 2-((1R,5S,6s)-6-(((6-fluoroquinolin-2-yl)methyl)amino)-3-azabicyclo[3.1.0]hexan-3-yl)-N-hydroxypyrimidine-5-carboxamide], for which the IC50 on HDAC11 came out at 2.8 µM; on HDAC4, 1 µM; at HDAC5, 0.39 µM; at HDAC7, 1.6 µM; on HDAC9, 0.44 µM.
